Source: patent US8063220B2, “Sulfonyl-quinoline derivatives” (Richter Gedeon Nyrt., priority 2007, dated 2011)

Assays:
[1] = target: mGluR1 receptors (Homo sapiens, UniProt Q13255); test: Activity on mGluR1 receptors (test not specified)
[2] = target: mGluR5 receptors (Homo sapiens, UniProt P41594); test: Activity on mGluR5 receptors (test not specified)
[3] = target: T1, rat mGluR1 (Rattus norvegicus, UniProt P23385); test: MGluR1 receptor binding test ([3H]R214127 displacement, rat cerebellar membrane preparation); conditions: rat mGluR1, [3H]R214127 3 nM; read-out: mGlu1 Ki
T1 construct: rat cerebellar membrane preparation was used; from tissue; host or cells: rat cerebellum (membrane preparation)
T1 sequence (P23385 19-1199): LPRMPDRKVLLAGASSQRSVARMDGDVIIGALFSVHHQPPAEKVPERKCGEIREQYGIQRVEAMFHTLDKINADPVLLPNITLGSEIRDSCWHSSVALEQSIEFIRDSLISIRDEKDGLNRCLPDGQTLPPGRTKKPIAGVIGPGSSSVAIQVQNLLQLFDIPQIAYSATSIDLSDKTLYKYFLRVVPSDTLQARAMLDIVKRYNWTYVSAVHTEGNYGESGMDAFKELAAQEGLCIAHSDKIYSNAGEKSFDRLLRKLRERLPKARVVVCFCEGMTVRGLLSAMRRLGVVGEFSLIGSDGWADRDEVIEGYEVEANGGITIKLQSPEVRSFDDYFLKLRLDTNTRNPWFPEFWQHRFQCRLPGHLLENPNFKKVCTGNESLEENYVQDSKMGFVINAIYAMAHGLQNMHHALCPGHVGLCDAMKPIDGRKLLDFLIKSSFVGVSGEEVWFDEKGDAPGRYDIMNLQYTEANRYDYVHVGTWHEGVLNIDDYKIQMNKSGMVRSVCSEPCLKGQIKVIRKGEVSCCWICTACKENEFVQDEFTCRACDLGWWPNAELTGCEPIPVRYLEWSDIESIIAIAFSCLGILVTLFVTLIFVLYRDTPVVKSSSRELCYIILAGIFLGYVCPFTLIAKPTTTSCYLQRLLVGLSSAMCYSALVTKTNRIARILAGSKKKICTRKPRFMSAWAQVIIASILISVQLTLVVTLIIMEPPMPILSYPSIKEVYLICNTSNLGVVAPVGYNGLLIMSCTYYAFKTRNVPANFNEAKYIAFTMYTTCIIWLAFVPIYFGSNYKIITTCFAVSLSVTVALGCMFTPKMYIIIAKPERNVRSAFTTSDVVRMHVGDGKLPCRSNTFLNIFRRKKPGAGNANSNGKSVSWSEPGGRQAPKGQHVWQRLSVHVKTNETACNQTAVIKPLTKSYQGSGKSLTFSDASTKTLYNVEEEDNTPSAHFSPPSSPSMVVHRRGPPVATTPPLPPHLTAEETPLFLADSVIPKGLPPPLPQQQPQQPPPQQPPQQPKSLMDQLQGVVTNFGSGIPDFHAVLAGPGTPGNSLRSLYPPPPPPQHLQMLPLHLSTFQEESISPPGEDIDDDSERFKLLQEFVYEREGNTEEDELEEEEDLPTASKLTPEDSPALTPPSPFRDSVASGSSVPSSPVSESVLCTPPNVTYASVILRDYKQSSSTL
In short: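 Rat cerebellar membranes with 3 nM [3H]R214127; nonspecific binding defined by 1 μM R214127. IC50 from displacement curves by nonlinear regression, converted to Ki by Cheng–Prusoff.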

[4] = target: T2, rat mGluR5 (Rattus norvegicus, UniProt P31424); test: MGluR5 receptor binding test ([3H]-M-MPEP displacement, rat cerebro-cortical membrane preparation); conditions: rat mGluR5, [3H]-M-MPEP 2 nM; read-out: mGlu5 Ki
T2 construct: Rat cerebro-cortical membrane preparation was used; from tissue; host or cells: rat cerebral cortex (membrane preparation)
T2 sequence (P31424 21-1203): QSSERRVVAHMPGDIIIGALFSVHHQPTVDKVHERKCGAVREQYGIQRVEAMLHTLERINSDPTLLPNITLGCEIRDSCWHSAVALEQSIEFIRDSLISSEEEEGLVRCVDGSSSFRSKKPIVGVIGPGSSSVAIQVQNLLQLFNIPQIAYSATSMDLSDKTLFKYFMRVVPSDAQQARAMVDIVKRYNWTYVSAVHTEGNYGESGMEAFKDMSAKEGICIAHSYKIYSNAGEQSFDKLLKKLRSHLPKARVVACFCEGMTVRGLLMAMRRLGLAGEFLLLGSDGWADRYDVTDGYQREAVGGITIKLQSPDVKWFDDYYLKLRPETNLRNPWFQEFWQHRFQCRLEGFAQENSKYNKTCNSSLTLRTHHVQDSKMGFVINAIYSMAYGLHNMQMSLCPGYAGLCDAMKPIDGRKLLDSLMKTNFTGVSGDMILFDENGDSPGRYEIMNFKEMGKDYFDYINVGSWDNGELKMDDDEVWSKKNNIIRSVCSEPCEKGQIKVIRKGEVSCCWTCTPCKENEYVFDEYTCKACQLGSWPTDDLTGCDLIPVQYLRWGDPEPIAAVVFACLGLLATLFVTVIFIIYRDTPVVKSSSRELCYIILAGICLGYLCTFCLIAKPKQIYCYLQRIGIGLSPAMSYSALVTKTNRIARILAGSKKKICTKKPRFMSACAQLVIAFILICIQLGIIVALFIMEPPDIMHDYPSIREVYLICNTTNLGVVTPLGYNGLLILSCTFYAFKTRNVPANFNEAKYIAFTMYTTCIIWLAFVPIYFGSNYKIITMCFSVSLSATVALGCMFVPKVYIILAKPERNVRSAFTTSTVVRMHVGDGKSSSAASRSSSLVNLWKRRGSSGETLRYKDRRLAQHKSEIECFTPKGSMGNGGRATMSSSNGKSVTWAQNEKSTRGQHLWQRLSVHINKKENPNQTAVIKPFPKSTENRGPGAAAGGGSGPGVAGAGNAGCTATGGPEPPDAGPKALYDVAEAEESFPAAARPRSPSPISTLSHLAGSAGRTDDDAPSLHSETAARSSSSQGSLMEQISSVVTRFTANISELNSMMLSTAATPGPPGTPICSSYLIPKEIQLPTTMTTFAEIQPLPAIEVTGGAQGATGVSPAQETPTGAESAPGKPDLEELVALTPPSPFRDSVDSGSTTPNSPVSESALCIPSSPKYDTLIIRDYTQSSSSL
Experimental: Rat cerebro-cortical membrane preparation was used to determine the binding characteristics of reference compounds and novel compounds to the rat mGluR5. The A18 cell line expressing hmGluR5a (purchased from Euroscreen) was used to determine binding characteristics of the chemical compounds to the human mGluR5a receptor. [3H]-M-MPEP (2 nM) was used as radioligand. The nonspecific binding was determined in the presence of 10 μM M-MPEP.

Chain of mGluR1 receptors (Q13255 19-1194): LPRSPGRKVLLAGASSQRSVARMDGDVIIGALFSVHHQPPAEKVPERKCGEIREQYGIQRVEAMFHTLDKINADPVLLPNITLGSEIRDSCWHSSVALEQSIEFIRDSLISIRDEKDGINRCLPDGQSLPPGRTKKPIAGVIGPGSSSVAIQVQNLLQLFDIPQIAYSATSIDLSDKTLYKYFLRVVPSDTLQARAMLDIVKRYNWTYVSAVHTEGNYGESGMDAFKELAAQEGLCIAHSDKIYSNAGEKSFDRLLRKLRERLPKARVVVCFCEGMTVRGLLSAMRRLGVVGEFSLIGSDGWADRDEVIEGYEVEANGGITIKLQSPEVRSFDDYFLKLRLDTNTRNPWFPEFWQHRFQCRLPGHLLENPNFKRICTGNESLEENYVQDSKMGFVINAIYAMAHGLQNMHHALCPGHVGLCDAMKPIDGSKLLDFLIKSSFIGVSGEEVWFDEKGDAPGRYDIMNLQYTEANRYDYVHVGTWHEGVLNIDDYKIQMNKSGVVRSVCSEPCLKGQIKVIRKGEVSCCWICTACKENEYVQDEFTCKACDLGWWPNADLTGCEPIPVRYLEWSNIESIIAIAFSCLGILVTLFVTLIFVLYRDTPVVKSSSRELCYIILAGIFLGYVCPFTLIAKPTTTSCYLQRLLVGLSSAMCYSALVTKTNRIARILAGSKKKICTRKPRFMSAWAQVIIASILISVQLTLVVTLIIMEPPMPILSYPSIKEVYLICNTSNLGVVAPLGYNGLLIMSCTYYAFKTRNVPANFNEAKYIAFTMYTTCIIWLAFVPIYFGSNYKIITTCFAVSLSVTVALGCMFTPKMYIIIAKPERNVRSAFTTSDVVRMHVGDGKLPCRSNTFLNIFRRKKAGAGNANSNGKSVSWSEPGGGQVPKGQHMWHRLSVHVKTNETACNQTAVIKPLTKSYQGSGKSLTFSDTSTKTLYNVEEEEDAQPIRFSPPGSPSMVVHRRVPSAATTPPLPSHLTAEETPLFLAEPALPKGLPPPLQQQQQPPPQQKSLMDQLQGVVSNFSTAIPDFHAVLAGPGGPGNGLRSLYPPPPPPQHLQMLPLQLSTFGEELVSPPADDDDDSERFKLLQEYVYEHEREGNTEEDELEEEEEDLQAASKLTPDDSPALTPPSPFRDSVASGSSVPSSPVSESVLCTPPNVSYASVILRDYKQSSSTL
Chain of mGluR5 receptors (P41594 21-1212): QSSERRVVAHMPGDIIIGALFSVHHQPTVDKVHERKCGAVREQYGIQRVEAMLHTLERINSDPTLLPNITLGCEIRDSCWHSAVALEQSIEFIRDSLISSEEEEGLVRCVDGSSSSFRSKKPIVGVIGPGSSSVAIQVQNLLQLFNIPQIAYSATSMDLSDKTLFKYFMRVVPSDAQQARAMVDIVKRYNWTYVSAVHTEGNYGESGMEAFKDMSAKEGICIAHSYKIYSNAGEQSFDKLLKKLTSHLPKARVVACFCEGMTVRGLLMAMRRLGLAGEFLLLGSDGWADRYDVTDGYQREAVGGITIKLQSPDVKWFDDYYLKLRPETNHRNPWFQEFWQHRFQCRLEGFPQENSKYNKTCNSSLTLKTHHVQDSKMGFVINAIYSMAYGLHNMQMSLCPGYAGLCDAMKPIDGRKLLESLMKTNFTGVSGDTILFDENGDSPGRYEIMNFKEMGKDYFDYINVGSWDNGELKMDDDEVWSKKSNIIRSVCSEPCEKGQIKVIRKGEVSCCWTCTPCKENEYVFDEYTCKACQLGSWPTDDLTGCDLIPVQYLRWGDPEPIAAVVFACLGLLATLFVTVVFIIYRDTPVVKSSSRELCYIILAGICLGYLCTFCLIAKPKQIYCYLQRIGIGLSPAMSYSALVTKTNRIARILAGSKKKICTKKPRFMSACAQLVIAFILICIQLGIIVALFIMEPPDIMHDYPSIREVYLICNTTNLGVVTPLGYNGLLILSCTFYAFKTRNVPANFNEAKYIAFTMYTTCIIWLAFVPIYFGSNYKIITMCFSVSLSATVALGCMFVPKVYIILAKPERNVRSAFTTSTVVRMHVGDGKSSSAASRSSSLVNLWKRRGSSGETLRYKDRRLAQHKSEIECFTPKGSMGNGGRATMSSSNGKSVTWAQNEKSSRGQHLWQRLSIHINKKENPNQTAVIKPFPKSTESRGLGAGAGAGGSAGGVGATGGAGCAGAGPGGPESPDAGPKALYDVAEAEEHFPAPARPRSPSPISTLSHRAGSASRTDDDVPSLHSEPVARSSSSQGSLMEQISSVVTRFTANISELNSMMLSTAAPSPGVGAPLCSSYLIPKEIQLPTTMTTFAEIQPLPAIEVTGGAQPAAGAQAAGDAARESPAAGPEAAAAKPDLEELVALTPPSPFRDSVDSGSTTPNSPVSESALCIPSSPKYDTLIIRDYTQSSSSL

| Structure (SMILES) | activity on mGluR1 receptors [1] | activity on mGluR5 receptors [2] | Ki [3] | Ki [4] |
| --- | --- | --- | --- | --- |
| O=S(=O)(c1ccccc1)c1cnc2c(C(F)(F)F)cccc2c1-c1ccccc1 [3-benzenesulfonyl-4-phenyl-8-trifluoromethyl-quinoline] | inactive | inactive | – | – |
| N#Cc1cccc(S(=O)(=O)c2cnc3cc(Cl)ccc3c2-c2ccc(Cl)cc2)c1 [Compound 177] | – | – | > 500 nM | < 200 nM |
| O=S(=O)(c1ccc(F)c(Cl)c1)c1cnc2cc(F)ccc2c1-c1ccc(F)cc1 [Compound 105] | – | – | < 200 nM | < 200 nM |
| COc1ccc(S(=O)(=O)c2cnc3cc(F)ccc3c2-c2ccc(Cl)cc2)cc1 [Compound 11] | – | – | > 500 nM | < 200 nM |
| COc1cccc(-c2c(S(=O)(=O)c3ccc(F)cc3)cnc3c(F)cccc23)c1 [Compound 23] | – | – | > 500 nM | < 200 nM |
| O=S(=O)(c1cc(F)cc(F)c1)c1cnc2cc(Cl)ccc2c1-c1cccc(F)c1 [Compound 169] | – | – | > 500 nM | < 200 nM |
| N#Cc1cccc(S(=O)(=O)c2cnc3c(F)cccc3c2-c2ccc(F)cc2)c1 [Compound 222] | – | – | > 500 nM | < 200 nM |
| O=S(=O)(c1ccc(F)c(F)c1)c1cnc2cc(F)ccc2c1-c1ccc(F)c(F)c1 [Compound 251] | – | – | > 500 nM | < 200 nM |
| N#Cc1cccc(S(=O)(=O)c2cnc3cc(F)ccc3c2-c2ccc(F)cc2)c1 [Compound 39] | – | – | 200 to 500 nM | < 200 nM |
| O=S(=O)(c1ccc(Cl)cc1)c1cnc2c(Cl)cccc2c1-c1cccc(Cl)c1 [Compound 6] | – | – | > 500 nM | 200 to 500 nM |
| O=S(=O)(c1ccc(F)c(Cl)c1)c1cnc2cc(Cl)ccc2c1-c1cc(F)cc(F)c1 [Compound 262] | – | – | < 200 nM | < 200 nM |
| N#Cc1cccc(S(=O)(=O)c2cnc3cc(Cl)ccc3c2-c2cccc(Cl)c2)c1 [Compound 254] | – | – | 200 to 500 nM | < 200 nM |
| O=S(=O)(c1cc(Cl)cc(Cl)c1)c1cnc2c(F)cccc2c1-c1ccc(F)cc1 [Compound 50] | – | – | < 200 nM | < 200 nM |
| O=S(=O)(c1ccc(F)cc1)c1cnc2c(F)cccc2c1-c1cccc(Cl)c1 [Compound 20] | – | – | < 200 nM | < 200 nM |
| O=S(=O)(c1ccc(F)c(F)c1)c1cnc2c(F)cccc2c1-c1ccccc1F [Compound 243] | – | – | > 500 nM | < 200 nM |
| N#Cc1cccc(S(=O)(=O)c2cnc3c(F)cccc3c2-c2ccccc2F)c1 [Compound 213] | – | – | > 500 nM | < 200 nM |
| COc1ccc(S(=O)(=O)c2cnc3c(F)cccc3c2-c2cccc(F)c2)cc1 [Compound 55] | – | – | > 500 nM | < 200 nM |
| O=S(=O)(c1ccc(F)c(Cl)c1)c1cnc2c(F)c(Cl)ccc2c1-c1cccc(F)c1 [Compound 203] | – | – | > 500 nM | < 200 nM |
| O=S(=O)(c1ccc(F)c(F)c1)c1cnc2ccccc2c1-c1ccc(F)cc1 [Compound 237] | – | – | > 500 nM | < 200 nM |
| O=S(=O)(c1ccc(F)c(F)c1)c1cnc2cc(F)ccc2c1-c1ccc(F)cc1 [Compound 101, 3-(3,4-difluoro-benzenesulfonyl)-7-fluoro-4-(4-fluoro-phenyl)-quinoline] | – | – | 200 to 500 nM | < 200 nM |
| O=S(=O)(c1ccc(Cl)c(Cl)c1)c1cnc2c(Cl)cccc2c1-c1cccc(Cl)c1 [Compound 7] | – | – | < 200 nM | < 200 nM |
| N#Cc1ccc2c(-c3ccc(F)cc3)c(S(=O)(=O)c3ccc(F)c(F)c3)cnc2c1 [Compound 192] | – | – | > 500 nM | > 500 nM |
| O=S(=O)(c1ccc(F)cc1)c1cnc2cc(F)ccc2c1-c1ccc(F)cc1 [Compound 40] | – | – | > 500 nM | < 200 nM |
